# Reference: patent US11058668B2 (EIDOS THERAPEUTICS, INC., priority 2018, dated 2021)
# Where “and” joins values, the source holds several entries; their conditions need not be identical. Identical values can stand only once.
# Legend:
# tetrameric TTR [1] = biological target: T1, tetrameric TTR (Homo sapiens, UniProt P02766, V50M); experiment: Phase 2 study, fluorescence probe (FPE) assay ex vivo; format: in vivo; conditions: individual with V30M TTR mutation, 800 mg b.i.d.
# T1 construct: monitoring TTR serum concentrations in trial participants; from tissue; host or cells: serum / plasma of ATTR-CM patients
# Method: (§1) Aliquots of each serum sample are plated in 96 well plates. The fluorescence changes (λex=328 nm and λem=384 nm) after addition of probe are monitored every 15 min using a fluorescent capable microplate for 6 hr at RT.
# (§2) The phase 2 clinical study was performed essentially as described in Example 3. A total of 49 patents were included instead of 45: 16 receiving 400 mg bid; 16 receiving 800 mg bid; and 17 receiving placebo.
# (§3) TTR stabilization was measured ex vivo using the FPE and Western blot assays described at the beginning of the examples section. TTR stabilization was measured in vivo by monitoring TTR serum concentrations in trial participants.
# tetrameric TTR [2] = biological target: T2, tetrameric TTR (Homo sapiens, UniProt P02766); experiment: as above; format: in vivo; set-up: monitoring TTR serum concentrations in trial participants; from tissue; host or cells: serum / plasma of ATTR-CM patients
# Method: as §1, §2, §3
# TTR [3] = biological target: T3, TTR (Macaca fascicularis, UniProt Q8HXW1); experiment: Single dose study in monkeys, FPE assay on serum; format: in vivo, cynomolgus monkey
# T3 construct: from tissue; host or cells: serum of dosed male cynomolgus monkeys
# Method: There was a washout period of two weeks between the two phases. Blood samples were collected at pre-dose and at approximately 0.083 (IV only), 0.25, 0.5, 1, 2, 4, 8, 12, 24, 48, 72 and 96 hours post-dose. Plasma samples were assayed for AG10 and AG10 acylglucuronide and serum was tested in FPE assay.
# TTR [4] = biological target: T4, TTR (Homo sapiens, UniProt P02766, V50M); experiment: Phase 2 study in ATTR-CM patients, serum TTR concentration (ARUP Prealbumin assay); format: in vivo; conditions: 800 mg b.i.d., V30M
# T4 construct: monitoring TTR serum concentrations in trial participants; from tissue; host or cells: serum / plasma of ATTR-CM patients
# Method: (§4) Screening and randomization will be followed by a 28-day blinded, placebo-controlled treatment period. Approximately 45 subjects are planned to enroll in the Phase 2 study.
# (§5) An ARUP Prealbumin assay was also used to analyze TTR blood serum concentration in the MAD cohorts tested. ARUP analyzes samples for prealbumin using the prealbumin reagent kit provided by Roche Diagnostics and run on the Roche Diagnostics c702 module. Lowest reportable limit is 3 mg/dL.
# as §2, §3
# TTR [5] = experiment: as above; format: in vivo, human; conditions: for Blood Serum TTR Concentration, Average Change: V122I; for Blood Serum TTR Concentration, Average Change (baseline to day 28): all genotypes, ATTR-CM patients
# Method: as §4, §5, §2, §3
# tetrameric TTR [6] = biological target: T1, tetrameric TTR; experiment: Phase 2 study, Western blot of tetrameric TTR ex vivo; format: in vivo; conditions: individual with V30M TTR mutation, 800 mg b.i.d.
# Method: (§6) Blood plasma samples from the subject are diluted with acidification buffer (sodium acetate, KCl, EDTA, DTT, pH about 4.0) for both the 0 and 72 hour time point. Time 0 hr samples are directly cross-linked with glutaraldehyde, and then quenched. 72 hr samples are incubated at room temperature for 72 hr and then cross-linked and quenched by the same protocol. All samples are then denatured by adding SDS gel loading buffer and boiled prior to gel loading. Each sample is separated in SDS-PAGE gels and analyzed by immunoblotting using anti-TTR antiserum (Polyclonal Rabbit Anti-Human Prealbumin. DAKO Cat# A0002). The density of all TTR bands are quantified using infrared LICOR imaging system or Fluorescence Imaging system and reported. Normalization by IgG band using LICOR 925-32232 or Invitrogen 84546.
# [7] = Phase 2 study, tolerability in ATTR-CM patients; format: in vivo, human; conditions: symptomatic ATTR-CM patients, 28 days
# Method: as §4, §2
# tetrameric TTR [8] = biological target: T2, tetrameric TTR; experiment: Western blot for stabilization of tetrameric TTR, Phase 1 subjects; format: in vivo; set-up: from tissue; host or cells: serum / blood plasma of dosed healthy human volunteers; conditions: 800 mg AG10 HCl q12h, day 12 predose (trough) and post dose (peak); 72h acidification
# Method: as §6
# [9] = biological target: T5, human serum albumin (HSA) (Homo sapiens, UniProt P02768); experiment: Gel filtration and dialysis binding to human serum albumin; set-up: albumin from human serum; Sigma Aldrich, catalog no.: A3782; purchased Sigma Aldrich A3782; host or cells: human serum; conditions: 30 μM compound, 600 μM albumin
# Method: The concentration of HSA (i.e. concentration at time zero) was also determined using NanoDrop™ (based on calibration curves of known HAS concentrations). […] The concentration of test compounds in these fractions (i.e. conc. at time zero) was evaluated using HPLC (based on calibration curves of known concentration of test compounds). 500 μL of each HSA/test compound samples was then added to a Slide-A-Lyzer Dialysis Cassette G2 (3.5K MWCO, Thermo Scientific, catalog no. P187722). The dialysis Cassettes were placed in 100 ml of assay buffer and stirred at room temperature. After 24 hr, the samples were removed from dialysis cassette and the volume was measured. The concentration of HAS and test compounds were determined using NanoDrop™ and HPLC as described above.
# [10] = pKa values of stabilizers; format: physicochemical; conditions: carboxylic acid group
# [11] = biological target: T5, human serum albumin (HSA); experiment: biochemical
# Method: (§7) Isothermal Titration Calorimetry (ITC). Binding experiments were performed using MicroCal PEAQ-ITC at 25° C. […] 19 injections of ligand (2.0 μL each) were injected into the ITC cell (at 25° C.) to the point that TTR was fully saturated with ligand. Calorimetric data were plotted and fitted using the standard single-site binding model.
# tetrameric TTR [12] = biological target: T2, tetrameric TTR; experiment: Fluorescent Probe Exclusion (FPE) assay on serum of Phase 1 subjects; format: in vivo; set-up: from tissue; host or cells: serum / blood plasma of dosed healthy human volunteers; conditions: single dose of 300 mg and 800 mg
# TTR [13] = biological target: TTR (Homo sapiens, UniProt P02766); experiment: Isothermal titration calorimetry (ITC) with TTR in buffer; conditions: 25° C.
# Method: as §7
# TTR in human serum = biological target: T6, TTR in human serum (Homo sapiens, UniProt P02766); experiment: FPE assay in human serum; format: binding; conditions: whole human serum, FPE concentration-effect
# T6 construct: pooled human serum (prepared from human male AB plasma, Sigma; catalog no; H4522; TTR concentration 5 μM); tissue Sigma H4522; host or cells: pooled human serum from human male AB plasma
# Excerpt: FPE assay for binding TTR in buffer and human or dog serum. […] The FPE probe is a thioester TTR ligand that is not fluorescent by itself, however upon binding to the T4 binding site of TTR it covalently modifies lysine 15 (K15), creating a fluorescent conjugate. Ligands that bind to the T4 site of TTR will decrease FPE probe binding as observed by lower fluorescence. […] The change in fluorescence (λex=328 nm and λem=384 nm) were monitored using a microplate spectrophotometer reader (SpectraMax M5) for 6 hr at rt. […] The change in fluorescence (λex=328 nm and λem=384 nm) were monitored using a microplate spectrophotometer reader (SpectraMax M5) for 6 hr at rt.
# [14] = Population PK analysis, effect of disease state and diuretics; format: in vivo, human
# Excerpt: Thus, the final model retained disease state on the central volume of distribution.
# Of the 17 subjects who were on placebo, 14 were on furosemide or torsemide.
# [15] = ATTR-CM patients, FPE vs plasma concentration
# T5 sequence (P02768 25-609): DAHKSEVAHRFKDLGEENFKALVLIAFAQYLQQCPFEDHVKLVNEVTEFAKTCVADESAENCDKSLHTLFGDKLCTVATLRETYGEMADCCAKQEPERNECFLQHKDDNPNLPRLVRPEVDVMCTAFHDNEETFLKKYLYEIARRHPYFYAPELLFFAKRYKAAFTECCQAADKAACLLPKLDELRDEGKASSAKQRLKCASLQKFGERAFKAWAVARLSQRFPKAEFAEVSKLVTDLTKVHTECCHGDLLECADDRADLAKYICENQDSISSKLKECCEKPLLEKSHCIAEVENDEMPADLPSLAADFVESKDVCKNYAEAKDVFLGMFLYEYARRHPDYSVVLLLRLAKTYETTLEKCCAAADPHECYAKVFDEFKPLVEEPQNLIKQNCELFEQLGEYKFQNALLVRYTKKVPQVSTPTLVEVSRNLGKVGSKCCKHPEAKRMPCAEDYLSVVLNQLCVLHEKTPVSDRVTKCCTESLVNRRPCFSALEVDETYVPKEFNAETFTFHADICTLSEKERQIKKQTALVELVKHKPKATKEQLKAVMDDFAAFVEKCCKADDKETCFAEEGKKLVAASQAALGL
smiles,measurement,setting,value
"Cc1n[nH]c(C)c1CCCOc1cc(C(=O)O)ccc1F [AG10, 3-(3-(3,5-dimethyl-1H-pyrazol-4-yl)propoxy)-4-fluorobenzoic acid]",target engagement at day 14 (FPE),tetrameric TTR [1],near complete target engagement
same,target engagement by day 14 (fluorescence probe assay),"tetrameric TTR [2]; 400 mg b.i.d. and 800 mg b.i.d., trough and peak time points",near full target engagement
same,blood plasma concentration at which full target engagement occurs,tetrameric TTR [2]; [15],about 7.5 μM
same,blood plasma concentration at which significant target engagement occurs,tetrameric TTR [2]; [15],~5 µM
same,binding to TTR in serum (FPE assay),"TTR [3]; 5 mg/kg per oral, 3 male monkeys",effectively binds to TTR in monkey serum
same,TTR stabilization versus dose (FPE assay),TTR [3]; orally administered,stabilized TTR in a dose dependent manner
same,"Blood Serum TTR Concentration, Average Change",TTR [4],61%
same,"Blood Serum TTR Concentration, Average Change",TTR [5]; 400 mg b.i.d.,51%
same,"Blood Serum TTR Concentration, Average Change (baseline to day 28)",TTR [5]; 400 mg b.i.d.,36%
same,"Blood Serum TTR Concentration, Average Change",TTR [5]; 800 mg b.i.d.,90%
same,"Blood Serum TTR Concentration, Average Change (baseline to day 28)",TTR [5]; 800 mg b.i.d.,50%
same,share of cohort with serum TTR concentrations within normal range (20-40 mg/dL),"TTR [5]; after 28 days of treatment, each active cohort (400 mg and 800 mg b.i.d.)",100%
same,TTR stabilization at day 28 (western blot),tetrameric TTR [6],near complete TTR stabilization
same,tolerability,[7],well tolerated
same,stabilization of tetrameric TTR (Western blot),tetrameric TTR [8],full stabilization of tetrameric TTR
same,concentration bound to HSA following dialysis vs buffer for 24 hr,[9],7.8 ± 0.1 µM
same,concentration bound to albumin at time 0 (immediately after gel filtration),[9],18.3 ± 0.98 µM
same,pKa,[10],4.13
same,Kd,[11],~8 µM
same,stabilization of TTR at peak concentrations (FPE assay),tetrameric TTR [12],complete stabilization
same,ΔH,TTR [13],-13.60 kcal/mol and -13.6 kcal/mol
same,concentration at which complete occupancy is achieved,TTR in human serum,≥ 10 µM
same,circulating trough concentration that is a suitable target based on stabilization of TTR,[14]; Phase 1 MAD 3 (800 mg Q12h) and Phase 2 ATTR-CM patients,~8 µM
same,effect of commonly used diuretics on exposure,[14]; furosemide or torsemide co-administration,do not interfere with exposure
same,clearance,"[14]; healthy adult volunteers in Phase 1 vs subjects in Phase 2, patient status or diuretics (furosemide/torsemide)",No difference in clearance
same,volume of distribution,[14]; subjects on furosemide/torsemide compared to healthy adult volunteers,lower
